Measurements reported in patent publication US10563197B2, “Use of a combination of Dbait molecule and PARP inhibitors to treat cancer” (INSTITUT CURIE, priority 2015, dated 2020).

How the values were obtained:
BC227 = experiment: Cell survival, trypan blue counting; format: cell-based, human; details: 4.80 μM of AsiDNA and/or 0.1 μM of Ola; day 6 after treatment; listed as Ola
Description: (§3) Cells were grown according to the supplier's instructions. Cell lines were maintained at 37° C. in a humidified atmosphere at 5% CO2.
(§4) AsiDNA or PARPi cytotoxicity was measured by relative survival and cell death quantification. Adherent cells were seeded in 24-well culture plates at appropriate densities and incubated 24 hours at 37° C. before AsiDNA and/or PARPi addition. Cells were harvested day 6aftertreatment, stained with 0.4% trypan blue (Sigma Aldrich, Saint-Louis, USA) and counted with a Burker chamber. Cell survival was calculated as ratio of living treated cells to living mock-treated cells. Cell death was calculated as the number of dead cells on the total number of counted cells. Additivity of the toxicity was calculated by the product of cell survivals to AsiDNA and cell survivals to PARPi.

MO59J = experiment: Cell survival, trypan blue counting; format: cell-based, human; details: 4.80 μM of AsiDNA and/or 0.1 μM of Ola; day 6 after treatment
Description: as §3, §4

HeLa BRCA2 SX = experiment: Cell survival, trypan blue counting; format: cell-based, human; details: 4.80 μM of AsiDNA and/or 0.1 μM of Ola; day 6 after treatment
Description: as §3, §4

HeLa PARP1 KD = experiment: Cell survival, trypan blue counting; format: cell-based, human; details: 4.80 μM of AsiDNA and/or 0.1 μM of Ola; day 6 after treatment
Description: as §3, §4

[1] = test system: Breast cancer cell lines MDAMB231; experiment: Cell survival with DT01 and PARP inhibitors (Example 1, FIG. 1); format: cell-based, human; details: DT01 100 or 333 μg/ml plus Olaparib 0.1, 1 μM or Veliparib 1, 10, 50 μM; 6 days
Description: Breast cancer cell lines MDAMB231 were treated with 100 μg/ml (Black, Squares) or 333 μg/ml (Grey, Crosses) of DT01 or no DT01 (Black, Diamond) and exposed to either 0, 0.1 and 1 μM of Olaparib (upper panel) or 1, 10 and 50 μM Veliparib (lower panel). Survival was measured 6 days after treatment using trypan blue to detect living cells. The data are presented as % of the non-treated control.
The human cell lines were grown in complete RPMI (Gibco, Cergy Pontoise, France) supplemented with 10% fetal bovine serum (ATGC, Orléans, France), 1% sodium pyruvate, streptomycin ([…]) and penicillin ([…]) (Invitrogen, Carlsbad, Calif., USA). Cells were maintained at 37° C. under a 5% CO2 atmosphere, at 100% humidity. Treatments were performed by adding nucleotides (DT01 and others) or/and PARP inhibitors at time zero in medium without serum. The medium was changed with fresh medium containing fetal bovine serum 24 hours after beginning of treatment. Cells were let to grow for 4 additional days (5 days after treatment), treated with trypsin and counted for total number of cells. Trypan blue (0.4%) was added for counting the living cells (uncolored) in the population.

IM9 = experiment: Cell survival, trypan blue counting; format: cell-based, human; details: 4.80 μM of AsiDNA and/or 0.1 μM of Ola; day 6 after treatment
Description: as §3, §4

[2] = test system: mutants with one repair defect (PARP1, BRCA1, BRCA2, Ku70, DNA-PKcs); experiment: Single treatments in isogenic pairs with DNA repair mutants; details: 4.80 μM AsiDNA or 0.1 μM Ola
Description: To determine if the efficacy of the combination of AsiDNA with Ola was not restricted to BC, the inventors analyzed the sensitivity of different cancer cell lines including glioblastoma, cervical cancer, colon cancer, blood cancer and melanoma.
as §3, §4

HCT116 KU70^+/− = experiment: Cell survival, trypan blue counting; format: cell-based, human; details: 4.80 μM of AsiDNA and/or 0.1 μM of Ola; day 6 after treatment
Description: as §3, §4

3 BC cell lines = experiment: Combined treatment survival in BC cell lines (FIG. 6, 7, 12); format: cell-based, human; details: FIG. 7
Description: Efficacy of AsiDNA (4. 8 μM), olaparib (0, 0.1 and 1 μM) or both was monitored 6 days after treatment by cell counting after trypan blue labeling. (A) Percentage of living cells relative to non-treated condition (NT). (B) Percentage of dead cells. Data are expressed as mean+Sc.D. of at least 2 independent experiments. Dotted lines indicate the calculated cell survivals if additivity between AsiDNA and olaparib.
Efficacy of AsiDNA (4.8 μM), veliparib (0, 10 and 50 μM) or both was monitored 6 days after treatment by trypan blue staining. (A) Percentage of living cells relative to non-treated condition (NT). (B) Percentage of dead cells. Dotted lines indicate the calculated cell survivals if additivity between AsiDNA and veliparib.
The inventors monitored cell survival to combined treatment of 3 BC and 2 non-tumor cell lines with different sensitivities to Ola and AsiDNA alone (FIG. 6; Table 1). […] However, the combination remained more efficient or at least equal to the expected additive effect at all the tested doses. […] In contrast, the normal cells were insensitive to both, the combined and the single treatments with AsiDNA and Ola (FIG. 6; Table 1).

MCF10A = experiment: Cell survival, trypan blue counting; format: cell-based, human; details: 4.80 μM of AsiDNA and/or 0.1 μM of Ola; day 6 after treatment
Description: as §3, §4

MCF12A = experiment: Cell survival, trypan blue counting; format: cell-based, human; details: 4.80 μM of AsiDNA and/or 0.1 μM of Ola; day 6 after treatment
Description: as §3, §4

MDAMB231 tumor cells = experiment: Alkaline comet assay; format: cell-based, human; details: 24 h; AsiDNA (16 μM) or olaparib (1 μM) alone
Description: (§1) To dissect this cytotoxic synergy, the inventors examined the effect of AsiDNA, Ola or both on DNA repair activities. […] Pan-nuclear phosphorylation of H2AX is thought to be involved in the inhibition of HR and NHEJ repair enzyme recruitment by AsiDNA. […] This increase could account for the efficient toxicity of the combination in MDAMB231 cells.
(§2) Cells treated with AsiDNA (16 μM), olaparib (1 μM) or both were suspended in 0.5% low melting point agarose in DMEM and transferred onto a frosted glass microscope slide precoated with a layer of 0.5% normal melting point agarose. Slides were immersed in lysis solution [2.5 mol/L NaCl, 100 mmol/L EDTA, 10 mmol/L Tris, 1% sodium lauryl sarcosinate, 10% DMSO, 1% Triton X-100 (pH 10)] at 4jC for 1 h, placed in a electrophoresis tank containing 0.3 mol/L NaOH (pH 13) and 1 mmol/L EDTA for 40 min, electrophoresis for 25 min at 25 V (300 mA), washed with neutral buffer [400 mmol/L Tris-HCl (pH 7.5)], and stained with 20 Ag/mL ethidium bromide. The variables of the “comets” were quantified with the use of the software Comet Assay 2 (Perceptive Instrument). Triplicate slides were processed for each experimental point. The tail moment is defined as the product of the percentage of DNA in the tail and the displacement between the head and the tail of the comet.

MCF10A non-tumor cells = experiment: Alkaline comet assay; format: cell-based, human; details: 24 h; olaparib (1 μM) alone or with AsiDNA (16 μM)
Description: as §1, §2

## O=C(c1cc(Cc2n[nH]c(=O)c3ccccc23)ccc1F)N1CCN(C(=O)C2CC2)CC1 [Olaparib, 4-[(3-[(4-cyclopropylcarbonyl)piperazin-4-yl]carbonyl)-4-fluorophenyl]methyl(2H)-phthalazin-1-one]
BC227
  Survival (%/NT): 75.3 %/NT
MO59J
  Survival (%/NT): 87.5 %/NT
HeLa BRCA2 SX
  Survival (%/NT): 65.0 %/NT
HeLa PARP1 KD
  Survival (%/NT): 100.5 %/NT
[1]
  survival to combined treatment with DT01 versus expected added effect of both single treatments: synergic effect
IM9
  Survival (%/NT): 84.6 %/NT
[2]
  cytotoxicity of single treatments to DNA repair mutants: essentially restricted to the BRCA mutants
HCT116 KU70^+/−
  Survival (%/NT): 88.6 %/NT
3 BC cell lines
  dose dependence of efficacy of single treatments: dose dependent
MCF10A
  Survival (%/NT): 86.2 %/NT
MCF12A
  Survival (%/NT): 88.5 %/NT
MDAMB231 tumor cells
  DNA damage (alkaline comet assay): induced accumulation of damage
MCF10A non-tumor cells
  DNA damage (alkaline comet assay): slight increase of DNA damage
